Counter-ions that a name gives are not always drawn. Like-named read-outs stand apart in the source and are kept apart here.
Legend:
Peritoneal cavity cells = test: Inhibitory effect on histamine release from sensitized peritoneal cavity cells; assay type: cell-based, rat (Wistar-strain); set-up: Released histamine, fluorescence intensity / Residual histamine, fluorescence intensity / Total histamine, fluorescence intensity: unit not given here; settings: for Net release rate: release not caused by antigen-antibody reaction deducted; for inhibition at 10 µM / inhibition at 50 µM / inhibition at 100 µM / inhibition at 200 µM: Rattus norvegicus; for inhibition at 50 µM / inhibition at 100 µM: read-out: Inhibitory effect on histamine release; for inhibition at 200 µM: 0.2 mM
Experimental: The inhibitory effect on histamine release of the compounds according to the present invention was investigated as follows. […] These cells were suspended in a phosphoric acid buffer solution (containing 0.1% of gelatin) and each 0.5 ml portion of this suspension was taken in a polyethylene tube. 1 ml each of solutions of various concentrations of test compound and 0.5 ml of 200 μg/ml of ovalbumin solution were added therein. They were incubated for 20 minutes at 37° C. to measure the histamine release rate. The amount of histamine was measured by a modified Shore method using fluorescence.

SRS-A = test: Anti-SRS-A effect on guinea pig's ileum (Magnus method)
Experimental: The anti-SRS-A effect of the compounds according to the present invention on guinea pig's ileum was measured by Magnus method. […] One minute thereafter, the ileum contraction inhibiting rate (%) was measured with use of 1 ml of 80% ethanol solution of SRS-A (150 mg/ml).

[1] = Acute toxicity in mice (LD50, Litchfield-Wilcoxon); settings: mouse, in vivo, ICR male mice
Experimental: Acute toxicity tests were carried out by intraperitoneal or peroral administration of the compound according to the present invention to groups of 10 ICR-strain male mice (weighing 20 g on the average), and each LD50 value was determined by Litchfield-Wilcoxon Method.

[2] = 0.05 mM, average ± S.E. of 3 or 4 experiments

SMILES	inhibition at 50 µM (Peritoneal cavity cells; [2])	inhibition at 100 µM (Peritoneal cavity cells; 0.1 mM)	ileum contraction inhibiting rate (SRS-A; 10^-4 g/ml)	ileum contraction inhibiting rate (SRS-A; 10^-5 g/ml)	ileum contraction inhibiting rate (SRS-A; 10^-6 g/ml)	further results
O=C(O)c1cc(=O)c2c(OCC(O)COc3cccc4oc(C(=O)O)cc(=O)c34)cccc2o1 [DSCG, disodium chromoglicate, reference compound]	29 ± 6.1%	70%	–	–	–	Histamine release rate (Peritoneal cavity cells; 0.01 mM): 36.8%; Net release rate (Peritoneal cavity cells; 0.01 mM): 22.9%; inhibition at 10 µM (Peritoneal cavity cells; 0.01 mM): 30%
Cc1ccc(C(=O)C(C)CN2CCN(CC(C)C)CC2)cc1.Cl.Cl (stereo not shown) [Example 1, 2,4'-dimethyl-3-(4-isobutylpiperazino)propiophenone dihydrochloride]	–	–	64.7 ± 7.51%	6.7 ± 3.33%	0 ± 0%	–
CC(CN(C)C)C(=O)c1ccc2ccccc2c1 (stereo not drawn) [Example 3, 2-methyl-3-dimethylamino-β-propionaphthone hydrochloride]	–	–	91.3 ± 3.84%	47.0 ± 9.50%	1.3 ± 0.88%	–
CC(CN1CCOCC1)C(=O)c1ccc2ccccc2c1 (stereo not drawn) [Example 4, 2-methyl-3-morpholino-β-propionaphthone hydrochloride]	–	–	96.7 ± 3.33%	36.3 ± 14.19%	13.0 ± 12.50%	Histamine release rate (Peritoneal cavity cells; 0.01 mM): 44.2%; Released histamine, fluorescence intensity (Peritoneal cavity cells; 0.01 mM): 212; Residual histamine, fluorescence intensity (Peritoneal cavity cells; 0.01 mM): 268; Total histamine, fluorescence intensity (Peritoneal cavity cells; 0.01 mM): 480; Net release rate (Peritoneal cavity cells; 0.01 mM): 30.3%; inhibition at 10 µM (Peritoneal cavity cells; 0.01 mM): 7.4%; LD50 ([1]; ip, intraperitoneal): 190 mg/kg; LD50 ([1]; po, peroral): 540 mg/kg
CC(CN1CCCC1)C(=O)c1ccc2ccccc2c1 (stereo not drawn) [Example 6, 2-methyl-3-pyrrolidino-β-propionaphthone hydrochloride]	–	48%	100.0 ± 0%	63.0 ± 6.66%	0.3 ± 0.33%	–
COc1ccc(C(=O)C(C)CN2CCCCC2)cc1OC.Cl (stereo not shown) [Example 7, 3',4'-dimethoxy-2-methyl-3-piperidinopropiophenone hydrochloride]	–	–	85.7 ± 0.67%	8.3 ± 2.85%	1.0 ± 1.00%	–
CC(CN1CCCCC1)C(=O)c1ccc2c(c1)CCCC2 (stereo not shown) [Example 9, 2-methyl-3-piperidino-5',6',7',8'-tetrahydro-2'-propionaphthone hydrochloride]	–	33.7%	–	–	–	–
CC1CCCN(CC(C)C(=O)c2ccc3ccccc3c2)C1 (stereo not drawn) [Example 10, 2-methyl-3-(3-methylpiperidino)-β-propionaphthone hydrochloride]	18 ± 5.4%	49.9%	–	–	–	–
CCN(CC)CC(C)C(=O)c1ccc(C)cc1.Cl (stereo not shown) [Example 11, 2,4'-dimethyl-3-diethylaminopropiophenone hydrochloride]	–	–	68.0 ± 13.05%	0.3 ± 0.33%	3.0 ± 3.00%	–
Cc1ccc(C(=O)C(C)CN2CCOCC2)cc1.Cl (stereo not shown) [Example 12, 2,4'-dimethyl-3-morpholinopropiophenone hydrochloride]	–	–	69.7 ± 12.13%	20.7 ± 5.61%	8.3 ± 6.89%	–
Cc1ccc(C(=O)C(C)CN2CCCC2)cc1.Cl (stereo not shown) [Example 13, 2,4'-dimethyl-3-pyrrolidinopropiophenone hydrochloride]	–	–	80.7 ± 6.98%	2.7 ± 2.67%	1.3 ± 1.33%	–
Cc1ccc(C(=O)C(C)CN2CCN(C)CC2)cc1.Cl.Cl (stereo not shown) [Example 14, 2,4'-dimethyl-3-(4-methylpiperazino)propiophenone dihydrochloride]	–	–	58.0 ± 4.36%	10.3 ± 7.88%	10.3 ± 7.98%	–
CCN1CCN(CC(C)C(=O)c2ccc(C)cc2)CC1.Cl.Cl (stereo not shown) [Example 15, 2,4'-dimethyl-3-(4-ethylpiperazino)propiophenone dihydrochloride]	–	–	69.7 ± 3.71%	20.7 ± 6.12%	0.3 ± 0.33%	–
Cc1ccc(C(=O)C(C)CN2CCN(Cc3ccccc3)CC2)cc1 (stereo not shown) [Example 16, 2,4'-dimethyl-3-(4-benzylpiperazino)propiophenone dihydrochloride]	–	–	–	–	–	inhibition at 200 µM (Peritoneal cavity cells): 72.4%
COc1cc(C(=O)C(C)CN2CCCCC2)ccc1O (stereo not shown) [Example 18, 4'-hydroxy-3'-methoxy-2-methyl-3-piperidinopropiophenone hydrochloride]	–	–	–	–	–	inhibition at 200 µM (Peritoneal cavity cells): 83.7%
CC(CN1CCCCC1)C(=O)c1cccc2ccccc12 (stereo not drawn) [Example 19, 2-methyl-3-piperidino-α-propionaphthone hydrochloride]	–	–	–	–	–	inhibition at 200 µM (Peritoneal cavity cells): 100%
CCCCCCc1ccc(C(=O)C(C)CN2CCCCC2)cc1 (stereo not shown) [Example 22, 4'-hexyl-2-methyl-3-piperidinopropiophenone hydrochloride]	82 ± 1.7%	87.2%	–	–	–	–
CC1CCN(CC(C)C(=O)c2ccc3ccccc3c2)CC1 (stereo not drawn) [Example 23, 2-methyl-3-(4-methylpiperidino)-β-propionaphthone hydrochloride]	21.4 ± 2.4%	65.8%	–	–	–	–

SMILES	inhibition at 50 µM (Peritoneal cavity cells; [2])	inhibition at 100 µM (Peritoneal cavity cells; 0.1 mM)	ileum contraction inhibiting rate (SRS-A; 10^-4 g/ml)	ileum contraction inhibiting rate (SRS-A; 10^-5 g/ml)	ileum contraction inhibiting rate (SRS-A; 10^-6 g/ml)	further results
Cc1ccc(C(=O)C(C)CN(C)C)cc1.Cl (stereo not shown) [Example 24, 2,4'-dimethyl-3-dimethylaminopropiophenone hydrochloride]	–	–	57.3 ± 5.17%	7.7 ± 3.67%	4.3 ± 2.40%	–
COc1ccc(C(=O)C(C)CN2CCCCC2)cc1.Cl (stereo not shown) [Example 25, 4'-methoxy-2-methyl-3-piperidinopropiophenone hydrochloride]	–	–	80.3 ± 7.22%	15.0 ± 14.50%	6.7 ± 6.67%	–
CCOc1ccc(C(=O)C(C)CN2CCCCC2)cc1.Cl (stereo not shown) [Example 26, 4'-ethoxy-2-methyl-3-piperidinopropiophenone hydrochloride]	–	–	86.7 ± 3.84%	12.3 ± 6.69%	6.7 ± 5.24%	–
Cc1ccc(C(=O)C(CN2CCCCC2)c2ccccc2)cc1 (stereo not shown) [Example 27, 4'-methyl-2-phenyl-3-piperidinopropiophenone hydrochloride]	–	–	–	–	–	inhibition at 200 µM (Peritoneal cavity cells): 78.5%
CC(CN1CCCCC1C)C(=O)c1ccc2ccccc2c1 (stereo not drawn) [Example 28, 2-methyl-3-(2-methylpiperidino)-β-propionaphthone hydrochloride]	18.5 ± 6.5%	40.7%	–	–	–	–
CC(CN1CCC(Cc2ccccc2)CC1)C(=O)c1ccc2ccccc2c1 (stereo not drawn) [Example 29, 2-methyl-3-(4-benzylpiperidino)-β-propionaphthone hydrochloride]	61 ± 3.6%	98.7%	–	–	–	–
Cc1ccc(C(=O)CCN2CCCCC2)cc1C [Example 30, 3',4'-dimethyl-3-piperidinopropiophenone hydrochloride]	19.4 ± 7.8%	50.3%	–	–	–	–
O=C(CCN1CCCCC1)c1ccc2ccccc2c1 [Example 31, 3-piperidino-β-propionaphthone hydrochloride]	–	–	–	–	–	inhibition at 50 µM (Peritoneal cavity cells): 53.4 ± 9.1%; inhibition at 100 µM (Peritoneal cavity cells): 89.6%
CCC(CN1CCCCC1)C(=O)c1ccc2ccccc2c1 (stereo not drawn) [Example 32, 2-ethyl-3-piperidino-β-propionaphthone hydrochloride]	27.2 ± 8.1%	42%	–	–	–	–
CC(CN1CCCCC1)C(=O)c1ccc2c(c1)CCC2 (stereo not shown) [Example 33, 1-(5-indanyl)-2-methyl-3-piperidinopropanone hydrochloride]	14.4 ± 2.6%	–	–	–	–	–
CCc1ccc(C(=O)C(C)CN2CCCCC2)cc1CC (stereo not shown) [Example 34, 3',4'-diethyl-2-methyl-3-piperidinopropiophenone hydrochloride]	29.1 ± 7.5%	–	–	–	–	–
CCCc1ccc(C(=O)C(C)CN2CCCCC2)cc1 (stereo not shown) [Example 36, 4'-n-propyl-2-methyl-3-piperidinopropiophenone hydrochloride]	23.6 ± 7.7%	–	–	–	–	–
COc1ccc2cc(C(=O)CCN3CCCCC3)ccc2c1 [Example 39, 6'-methoxy-3-piperidino-2'-propionaphthone hydrochloride]	–	85%	–	–	–	–
COc1ccc2cc(C(=O)C(C)CN3CCCCC3)ccc2c1 (stereo not shown) [Example 40, 6'-methoxy-2-methyl-3-piperidino-2'-propionaphthone hydrochloride]	–	84%	–	–	–	–
COc1ccc(C(=O)C(C)CN2CCCCC2)cc1Cl (stereo not shown) [Example 49, 3'-chloro-4'-methoxy-2-methyl-3-piperidinopropiophenone hydrochloride]	–	38%	–	–	–	–
CC(CN1CCCCC1)C(=O)c1ccc(Cl)c(Cl)c1 (stereo not shown) [Example 50, 3',4'-dichloro-2-methyl-3-piperidinopropiophenone hydrochloride]	–	73%	–	–	–	–
Cc1ccc2cc(C(=O)C(C)CN3CCCCC3)ccc2c1 (stereo not shown) [Example 51, 2,6'-dimethyl-3-piperidino-2'-propionaphthone hydrochloride]	–	37%	–	–	–	–

— patent publication US4277474A, “Treatment of allergic symptoms with propanone derivatives” (Nippon Zoki Pharmaceutical Co., Ltd., priority 1978, dated 1981)
